Experimental data reported in ChEMBL document CHEMBL3046624, “Synthesis, single crystal X-ray studies and antimicrobial activities of novel Indole barbiturates” (Med Chem Res, 2012).
Calls of active or inactive are those of the source. The rule behind the calls is not given here.

How the values were obtained:
Assay type in all cases: functional, organism-based
[1] = system: Candida albicans; test: Growth inhibition of Candida albicans at 100 ug/ml by cup-plate method
[2] = system: Staphylococcus aureus; test: Growth inhibition of Staphylococcus aureus at 200 ug/ml by cup-plate method
[3] = system: Proteus vulgaris; test: Growth inhibition of Proteus vulgaris at 300 ug/ml by cup-plate method
[4] = system: Escherichia coli; test: Growth inhibition of Escherichia coli at 200 ug/ml by cup-plate method
[5] = system: Bacillus subtilis; test: Growth inhibition of Bacillus subtilis at 100 ug/ml by cup plate method
[6] = system: Proteus vulgaris; test: Growth inhibition of Proteus vulgaris at 200 ug/ml by cup-plate method
[7] = system: Pseudomonas aeruginosa; test: Growth inhibition of Pseudomonas aeruginosa at 100 ug/ml by cup-plate method
[8] = system: Pseudomonas aeruginosa; test: Growth inhibition of Pseudomonas aeruginosa at 300 ug/ml by cup-plate method
[9] = system: Bacillus subtilis; test: Growth inhibition of Bacillus subtilis at 300 ug/ml by cup plate method
[10] = system: Saccharomyces cerevisiae; test: Growth inhibition of Saccharomyces cerevisiae at 100 ug/ml by cup-plate method
[11] = system: Escherichia coli; test: Growth inhibition of Escherichia coli at 100 ug/ml by cup-plate method
[12] = system: Candida albicans; test: Growth inhibition of Candida albicans at 300 ug/ml by cup-plate method
[13] = system: Staphylococcus aureus; test: Growth inhibition of Staphylococcus aureus at 100 ug/ml by cup-plate method
[14] = system: Bacillus subtilis; test: Growth inhibition of Bacillus subtilis at 200 ug/ml by cup plate method
[15] = system: Candida albicans; test: Growth inhibition of Candida albicans at 200 ug/ml by cup-plate method
[16] = system: Proteus vulgaris; test: Growth inhibition of Proteus vulgaris at 100 ug/ml by cup-plate method
[17] = system: Saccharomyces cerevisiae; test: Growth inhibition of Saccharomyces cerevisiae at 200 ug/ml by cup-plate method
[18] = system: Pseudomonas aeruginosa; test: Growth inhibition of Pseudomonas aeruginosa at 200 ug/ml by cup-plate method
[19] = system: Saccharomyces cerevisiae; test: Growth inhibition of Saccharomyces cerevisiae at 300 ug/ml by cup-plate method
[20] = system: Staphylococcus aureus; test: Growth inhibition of Staphylococcus aureus at 300 ug/ml by cup-plate method
[21] = system: Escherichia coli; test: Growth inhibition of Escherichia coli at 300 ug/ml by cup-plate method

## O=C1NC(=O)C(=Cc2c(-c3ccccc3)n(CC(=O)c3ccccc3)c3ccccc23)C(=O)N1
[1]
  growth inhibition (GI): inactive
[2]
  growth inhibition (GI): inactive
[3]
  growth inhibition (GI): Active
[4]
  growth inhibition (GI): inactive
[5]
  growth inhibition (GI): inactive
[6]
  growth inhibition (GI): inactive
[7]
  growth inhibition (GI): Active
[8]
  growth inhibition (GI): Active
[9]
  growth inhibition (GI): inactive
[10]
  growth inhibition (GI): Active
[11]
  growth inhibition (GI): inactive
[12]
  growth inhibition (GI): inactive
[13]
  growth inhibition (GI): inactive
[14]
  growth inhibition (GI): inactive
[15]
  growth inhibition (GI): inactive
[16]
  growth inhibition (GI): Active
[17]
  growth inhibition (GI): Active
[18]
  growth inhibition (GI): Active
[19]
  growth inhibition (GI): Active
[20]
  growth inhibition (GI): inactive
[21]
  growth inhibition (GI): inactive

## O=C1NC(=O)C(=Cc2c(-c3ccccc3)n(CC(=O)c3ccc(-c4ccccc4)cc3)c3ccccc23)C(=O)N1
[1]
  growth inhibition (GI): inactive
[2]
  growth inhibition (GI): Active
[3]
  growth inhibition (GI): Active
[4]
  growth inhibition (GI): Active
[5]
  growth inhibition (GI): Active
[6]
  growth inhibition (GI): Active
[7]
  growth inhibition (GI): inactive
[8]
  growth inhibition (GI): Active
[9]
  growth inhibition (GI): Active
[10]
  growth inhibition (GI): Active
[11]
  growth inhibition (GI): Active
[12]
  growth inhibition (GI): inactive
[13]
  growth inhibition (GI): Active
[14]
  growth inhibition (GI): Active
[15]
  growth inhibition (GI): inactive
[16]
  growth inhibition (GI): inactive
[17]
  growth inhibition (GI): Active
[18]
  growth inhibition (GI): inactive
[19]
  growth inhibition (GI): Active
[20]
  growth inhibition (GI): Active
[21]
  growth inhibition (GI): Active

## CCn1c(-c2ccccc2)c(C=C2C(=O)NC(=O)NC2=O)c2ccccc21
[1]
  growth inhibition (GI): Active
[2]
  growth inhibition (GI): inactive
[3]
  growth inhibition (GI): inactive
[4]
  growth inhibition (GI): inactive
[5]
  growth inhibition (GI): inactive
[6]
  growth inhibition (GI): inactive
[7]
  growth inhibition (GI): Active
[8]
  growth inhibition (GI): Active
[9]
  growth inhibition (GI): Active
[10]
  growth inhibition (GI): Active
[11]
  growth inhibition (GI): inactive
[12]
  growth inhibition (GI): Active
[13]
  growth inhibition (GI): inactive
[14]
  growth inhibition (GI): inactive
[15]
  growth inhibition (GI): Active
[16]
  growth inhibition (GI): inactive
[17]
  growth inhibition (GI): Active
[18]
  growth inhibition (GI): Active
[19]
  growth inhibition (GI): Active
[20]
  growth inhibition (GI): inactive
[21]
  growth inhibition (GI): inactive

## C=CCn1c(-c2ccccc2)c(C=C2C(=O)NC(=O)NC2=O)c2ccccc21
[1]
  growth inhibition (GI): Active
[2]
  growth inhibition (GI): Active
[3]
  growth inhibition (GI): Active
[4]
  growth inhibition (GI): Active
[5]
  growth inhibition (GI): Active
[6]
  growth inhibition (GI): Active
[7]
  growth inhibition (GI): Active
[8]
  growth inhibition (GI): Active
[9]
  growth inhibition (GI): Active
[10]
  growth inhibition (GI): Active
[11]
  growth inhibition (GI): Active
[12]
  growth inhibition (GI): Active
[13]
  growth inhibition (GI): Active
[14]
  growth inhibition (GI): Active
[15]
  growth inhibition (GI): Active
[16]
  growth inhibition (GI): Active
[17]
  growth inhibition (GI): Active
[18]
  growth inhibition (GI): Active
[19]
  growth inhibition (GI): Active
[20]
  growth inhibition (GI): Active
[21]
  growth inhibition (GI): Active

## O=C1NC(=O)C(=Cc2c(-c3ccccc3)n(CC(=O)c3ccc(Cl)cc3)c3ccccc23)C(=O)N1
[1]
  growth inhibition (GI): Active
[2]
  growth inhibition (GI): Active
[3]
  growth inhibition (GI): Active
[4]
  growth inhibition (GI): Active
[5]
  growth inhibition (GI): Active
[6]
  growth inhibition (GI): Active
[7]
  growth inhibition (GI): Active
[8]
  growth inhibition (GI): Active
[9]
  growth inhibition (GI): Active
[10]
  growth inhibition (GI): Active
[11]
  growth inhibition (GI): Active
[12]
  growth inhibition (GI): Active
[13]
  growth inhibition (GI): Active
[14]
  growth inhibition (GI): Active
[15]
  growth inhibition (GI): Active
[16]
  growth inhibition (GI): Active
[17]
  growth inhibition (GI): Active
[18]
  growth inhibition (GI): Active
[19]
  growth inhibition (GI): Active
[20]
  growth inhibition (GI): Active
[21]
  growth inhibition (GI): Active

## CCCCn1c(-c2ccccc2)c(C=C2C(=O)NC(=O)NC2=O)c2ccccc21
[1]
  growth inhibition (GI): Active
[2]
  growth inhibition (GI): Active
[3]
  growth inhibition (GI): Active
[4]
  growth inhibition (GI): Active
[5]
  growth inhibition (GI): Active
[6]
  growth inhibition (GI): Active
[7]
  growth inhibition (GI): inactive
[8]
  growth inhibition (GI): inactive
[9]
  growth inhibition (GI): Active
[10]
  growth inhibition (GI): inactive
[11]
  growth inhibition (GI): Active
[12]
  growth inhibition (GI): Active
[13]
  growth inhibition (GI): Active
[14]
  growth inhibition (GI): Active
[15]
  growth inhibition (GI): Active
[16]
  growth inhibition (GI): Active
[17]
  growth inhibition (GI): inactive
[18]
  growth inhibition (GI): inactive
[19]
  growth inhibition (GI): inactive
[20]
  growth inhibition (GI): Active
[21]
  growth inhibition (GI): Active

## CC1(C)S[C@@H]2[C@H](NC(=O)[C@H](N)c3ccccc3)C(=O)N2[C@H]1C(=O)O
[1]
  growth inhibition (GI): inactive
[2]
  growth inhibition (GI): Active
[3]
  growth inhibition (GI): Active
[4]
  growth inhibition (GI): Active
[5]
  growth inhibition (GI): Active
[6]
  growth inhibition (GI): Active
[7]
  growth inhibition (GI): Active
[8]
  growth inhibition (GI): Active
[9]
  growth inhibition (GI): Active
[11]
  growth inhibition (GI): Active
[12]
  growth inhibition (GI): inactive
[13]
  growth inhibition (GI): Active
[14]
  growth inhibition (GI): Active
[15]
  growth inhibition (GI): inactive
[16]
  growth inhibition (GI): Active
[18]
  growth inhibition (GI): Active
[20]
  growth inhibition (GI): Active
[21]
  growth inhibition (GI): Active

## COc1ccc(C(=O)Cn2c(-c3ccccc3)c(C=C3C(=O)NC(=O)NC3=O)c3ccccc32)cc1
[1]
  growth inhibition (GI): Active
[2]
  growth inhibition (GI): inactive
[3]
  growth inhibition (GI): Active
[4]
  growth inhibition (GI): inactive
[5]
  growth inhibition (GI): inactive
[6]
  growth inhibition (GI): Active
[7]
  growth inhibition (GI): Active
[8]
  growth inhibition (GI): Active
[9]
  growth inhibition (GI): Active
[10]
  growth inhibition (GI): inactive
[11]
  growth inhibition (GI): inactive
[12]
  growth inhibition (GI): Active
[13]
  growth inhibition (GI): inactive
[14]
  growth inhibition (GI): inactive
[15]
  growth inhibition (GI): Active
[16]
  growth inhibition (GI): Active
[17]
  growth inhibition (GI): inactive
[18]
  growth inhibition (GI): Active
[19]
  growth inhibition (GI): Active
[20]
  growth inhibition (GI): inactive
[21]
  growth inhibition (GI): inactive

## CC(=O)N1CCN(c2ccc(OCC3COC(Cn4ccnc4)(c4ccc(Cl)cc4Cl)O3)cc2)CC1 (configuration not stated)
[1]
  growth inhibition (GI): Active
[10]
  growth inhibition (GI): Active
[12]
  growth inhibition (GI): Active
[15]
  growth inhibition (GI): Active
[17]
  growth inhibition (GI): Active
[19]
  growth inhibition (GI): Active

## O=C1NC(=O)C(=Cc2c(-c3ccccc3)n(CC(=O)c3ccc(Br)cc3)c3ccccc23)C(=O)N1
[1]
  growth inhibition (GI): Active
[2]
  growth inhibition (GI): Active
[3]
  growth inhibition (GI): Active
[4]
  growth inhibition (GI): Active
[5]
  growth inhibition (GI): Active
[6]
  growth inhibition (GI): Active
[7]
  growth inhibition (GI): Active
[8]
  growth inhibition (GI): Active
[9]
  growth inhibition (GI): Active
[10]
  growth inhibition (GI): Active
[11]
  growth inhibition (GI): Active
[12]
  growth inhibition (GI): Active
[13]
  growth inhibition (GI): Active
[14]
  growth inhibition (GI): Active
[15]
  growth inhibition (GI): Active
[16]
  growth inhibition (GI): Active
[17]
  growth inhibition (GI): Active
[18]
  growth inhibition (GI): Active
[19]
  growth inhibition (GI): Active
[20]
  growth inhibition (GI): Active
[21]
  growth inhibition (GI): Active
